For one test, the target named is JAK1 (Homo sapiens (Human), UniProt P23458). The test is described as follows: Biochemical JAK kinase assay (LanthaScreen), JAK1. How it is done:
(§1) Assay 1: Biochemical JAK Kinase Assays
(§2) A panel of four LanthaScreen JAK biochemical assays (JAK1, 2, 3 and Tyk2) were carried in a common kinase reaction buffer (50 mM HEPES, pH 7.5, 0.01% Brij-35, 10 mM MgCl2, and 1 mM EGTA). Recombinant GST-tagged JAK enzymes and a GFP-tagged STAT1 peptide substrate were obtained from Life Technologies.
(§3) Serially diluted compounds were pre-incubated with each of the four JAK enzymes and the substrate in white 384-well microplates (Corning) at ambient temperature for 1 h. ATP was subsequently added to initiate the kinase reactions in 10 μL total volume, with 1% DMSO. […] Kinase reactions were allowed to proceed for 1 hour at ambient temperature before a 10 μL preparation of EDTA (10 mM final concentration) and Tb-anti-pSTAT1 (pTyr701) antibody (Life Technologies, 2 nM final concentration) in TR-FRET dilution buffer (Life Technologies) was added. The plates were allowed to incubate at ambient temperature for 1 h before being read on the EnVision reader (Perkin Elmer). Emission ratio signals (520 nm/495 nm) were recorded and utilized to calculate the percent inhibition values based on DMSO and background controls.
(§4) For dose-response analysis, percent inhibition data were plotted vs. compound concentrations, and IC50 values were determined from a 4-parameter robust fit model with the Prism software (GraphPad Software). Results were expressed as pIC50 (negative logarithm of IC50) and subsequently converted to pKi (negative logarithm of dissociation constant, Ki) using the Cheng-Prusoff equation.
(In general: Time-resolved FRET reads energy transfer from a long-lived donor to a nearby acceptor.)

For another test, the target named is JAK2 (Homo sapiens (Human), UniProt O60674). Nature of the test: Biochemical JAK kinase assay (LanthaScreen), JAK2. How it is done:
as §1, §2, §3, §4

In a further test the target is JAK3 (Homo sapiens (Human), UniProt P52333). It is filed as biochemical. How it is done:
as §1, §2, §3, §4

For test [1], the system named is IL-2 stimulated STAT5 phosphorylation in Tall-1 human T cell line. The test is described as follows: Inhibition of IL-2 stimulated pSTAT5 in Tall-1 T cells. Type of test: cell-based. The settings on record: TALL-1, 0.5 h, read-out: Tall-1 pIC50 (converted). How it is done:
Assay 2: Inhibition of IL-2 Stimulated pSTAT5 in Tall-1 T Cells
The potency of test compounds for inhibition of interleukin-2 (IL-2) stimulated STAT5 phosphorylation was measured in the Tall-1 human T cell line (DSMZ) using AlphaLisa.
Phosphorylated STAT5 was measured via the AlphaLISA SureFire Ultra pSTAT5 (Tyr694/699) kit (PerkinElmer).
Compounds were serially diluted in DMSO and dispensed acoustically to empty wells. Assay media (phenol red-free DMEM (Life Technologies) supplemented with 10% FBS (ATCC)) was dispensed (4 μL/well) and plates shaken at 900 rpm for 10 mins. Cells were seeded at 45,000 cells/well in assay media (4 μL/well), and incubated at 37° C., 5% CO2 for 1 hour, followed by the addition of IL-2 (R&D Systems; final concentration 300 ng/mL) in pre-warmed assay media (4 μL) for 30 minutes. […] The lysate was shaken at 900 rpm for 10 minutes at room temperature (RT). Phosphorylated STAT5 was measured via the pSTAT5 AlphaLisa kit (PerkinElmer). Freshly prepared acceptor bead mixture was dispensed onto lysate (5 μL) under green filtered <100 lux light. Plates were shaken at 900 rpm for 2 mins, briefly spun down, and incubated for 2 hrs at RT in the dark. Donor beads were dispensed (5 μL) under green filtered <100 lux light. Plates were shaken at 900 rpm for 2 minutes, briefly spun down, and incubated overnight at RT in the dark. Luminescence was measured with excitation at 689 nm and emission at 570 nm using an EnVision plate reader (PerkinElmer) under green filtered <100 lux light.
To determine the inhibitory potency of test compounds in response to IL-2, the average emission intensity of beads bound to pSTAT5 was measured in a human T cell line. IC50 values were determined from analysis of the inhibition curves of signal intensity versus compound concentration. Data are expressed as pIC50 (negative decadic logarithm IC50) values (mean±standard deviation).

[2] abbreviates: ATP at Km 25 μM, pIC50 converted with Cheng-Prusoff.
[3] abbreviates: ATP at Km 3 μM, pIC50 converted with Cheng-Prusoff.
Where [4] appears, read: ATP at Km 1.6 μM, pIC50 converted with Cheng-Prusoff.
Setting [5] is: IL-2 300 ng/mL, 30 min, pSTAT5 AlphaLisa.

Where two headings read alike, the source gives them in different places.

The values that follow come from patent US10836763B2, “5 to 7 membered heterocyclic amides as JAK inhibitors” (priority 2018, dated 2020).

Sequence of JAK2 (O60674 whole entry): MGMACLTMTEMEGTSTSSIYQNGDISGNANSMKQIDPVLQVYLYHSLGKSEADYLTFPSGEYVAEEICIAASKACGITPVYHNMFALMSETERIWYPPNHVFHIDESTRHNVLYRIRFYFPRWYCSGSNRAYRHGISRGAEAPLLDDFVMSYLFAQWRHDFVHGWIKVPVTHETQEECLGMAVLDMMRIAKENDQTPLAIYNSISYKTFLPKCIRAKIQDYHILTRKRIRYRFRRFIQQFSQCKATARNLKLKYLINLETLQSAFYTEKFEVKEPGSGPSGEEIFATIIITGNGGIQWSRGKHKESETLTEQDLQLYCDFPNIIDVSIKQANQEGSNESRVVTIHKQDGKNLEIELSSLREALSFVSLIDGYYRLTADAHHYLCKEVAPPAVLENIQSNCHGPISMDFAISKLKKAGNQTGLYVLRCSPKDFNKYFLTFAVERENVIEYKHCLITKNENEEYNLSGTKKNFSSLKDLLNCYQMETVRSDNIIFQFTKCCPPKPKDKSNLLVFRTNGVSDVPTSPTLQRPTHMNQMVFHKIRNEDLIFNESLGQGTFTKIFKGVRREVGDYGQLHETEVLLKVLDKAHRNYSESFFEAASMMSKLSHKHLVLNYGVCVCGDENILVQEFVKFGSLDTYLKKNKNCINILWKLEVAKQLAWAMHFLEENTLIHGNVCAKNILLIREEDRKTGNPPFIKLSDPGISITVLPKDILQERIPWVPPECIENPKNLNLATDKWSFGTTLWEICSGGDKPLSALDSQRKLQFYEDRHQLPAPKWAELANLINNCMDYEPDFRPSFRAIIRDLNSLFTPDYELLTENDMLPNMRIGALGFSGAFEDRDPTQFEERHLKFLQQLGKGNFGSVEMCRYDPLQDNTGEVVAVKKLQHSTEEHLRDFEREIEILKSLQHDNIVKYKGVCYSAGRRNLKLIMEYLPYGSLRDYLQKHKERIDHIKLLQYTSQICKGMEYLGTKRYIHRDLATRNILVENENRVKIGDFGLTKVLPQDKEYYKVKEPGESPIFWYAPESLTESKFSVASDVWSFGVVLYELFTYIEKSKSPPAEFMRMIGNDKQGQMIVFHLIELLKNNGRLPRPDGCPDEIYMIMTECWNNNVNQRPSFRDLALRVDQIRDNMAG
Sequence of JAK3 (P52333 whole entry): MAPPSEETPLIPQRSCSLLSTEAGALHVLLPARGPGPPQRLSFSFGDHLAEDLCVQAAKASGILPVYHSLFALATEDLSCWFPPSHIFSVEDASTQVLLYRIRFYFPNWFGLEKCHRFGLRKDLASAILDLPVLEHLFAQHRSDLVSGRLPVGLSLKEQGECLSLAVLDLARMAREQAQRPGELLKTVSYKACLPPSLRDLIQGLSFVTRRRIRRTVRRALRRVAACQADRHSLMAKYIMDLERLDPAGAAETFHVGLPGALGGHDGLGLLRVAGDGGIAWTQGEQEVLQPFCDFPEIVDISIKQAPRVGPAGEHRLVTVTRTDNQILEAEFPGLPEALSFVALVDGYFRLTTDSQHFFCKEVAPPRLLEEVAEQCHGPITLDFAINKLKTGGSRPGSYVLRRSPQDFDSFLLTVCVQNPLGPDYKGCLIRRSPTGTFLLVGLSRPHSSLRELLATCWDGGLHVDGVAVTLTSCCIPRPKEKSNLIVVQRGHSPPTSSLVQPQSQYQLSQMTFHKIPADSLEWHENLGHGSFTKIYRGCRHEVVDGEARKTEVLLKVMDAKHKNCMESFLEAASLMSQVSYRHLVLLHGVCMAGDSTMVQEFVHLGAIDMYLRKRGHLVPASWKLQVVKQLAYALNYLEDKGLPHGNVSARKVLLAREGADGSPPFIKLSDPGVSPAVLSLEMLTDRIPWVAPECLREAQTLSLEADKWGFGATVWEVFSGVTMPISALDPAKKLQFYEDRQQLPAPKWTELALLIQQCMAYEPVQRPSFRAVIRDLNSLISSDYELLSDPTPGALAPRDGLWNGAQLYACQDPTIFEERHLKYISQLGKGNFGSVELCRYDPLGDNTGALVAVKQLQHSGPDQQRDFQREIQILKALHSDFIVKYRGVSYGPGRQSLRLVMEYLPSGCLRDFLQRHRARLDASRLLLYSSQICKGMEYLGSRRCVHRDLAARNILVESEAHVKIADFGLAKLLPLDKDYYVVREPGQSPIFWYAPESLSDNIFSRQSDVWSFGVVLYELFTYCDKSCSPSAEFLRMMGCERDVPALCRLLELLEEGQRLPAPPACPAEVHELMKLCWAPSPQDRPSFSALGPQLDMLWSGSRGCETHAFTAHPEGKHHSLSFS
Sequence of JAK1 (P23458 whole entry): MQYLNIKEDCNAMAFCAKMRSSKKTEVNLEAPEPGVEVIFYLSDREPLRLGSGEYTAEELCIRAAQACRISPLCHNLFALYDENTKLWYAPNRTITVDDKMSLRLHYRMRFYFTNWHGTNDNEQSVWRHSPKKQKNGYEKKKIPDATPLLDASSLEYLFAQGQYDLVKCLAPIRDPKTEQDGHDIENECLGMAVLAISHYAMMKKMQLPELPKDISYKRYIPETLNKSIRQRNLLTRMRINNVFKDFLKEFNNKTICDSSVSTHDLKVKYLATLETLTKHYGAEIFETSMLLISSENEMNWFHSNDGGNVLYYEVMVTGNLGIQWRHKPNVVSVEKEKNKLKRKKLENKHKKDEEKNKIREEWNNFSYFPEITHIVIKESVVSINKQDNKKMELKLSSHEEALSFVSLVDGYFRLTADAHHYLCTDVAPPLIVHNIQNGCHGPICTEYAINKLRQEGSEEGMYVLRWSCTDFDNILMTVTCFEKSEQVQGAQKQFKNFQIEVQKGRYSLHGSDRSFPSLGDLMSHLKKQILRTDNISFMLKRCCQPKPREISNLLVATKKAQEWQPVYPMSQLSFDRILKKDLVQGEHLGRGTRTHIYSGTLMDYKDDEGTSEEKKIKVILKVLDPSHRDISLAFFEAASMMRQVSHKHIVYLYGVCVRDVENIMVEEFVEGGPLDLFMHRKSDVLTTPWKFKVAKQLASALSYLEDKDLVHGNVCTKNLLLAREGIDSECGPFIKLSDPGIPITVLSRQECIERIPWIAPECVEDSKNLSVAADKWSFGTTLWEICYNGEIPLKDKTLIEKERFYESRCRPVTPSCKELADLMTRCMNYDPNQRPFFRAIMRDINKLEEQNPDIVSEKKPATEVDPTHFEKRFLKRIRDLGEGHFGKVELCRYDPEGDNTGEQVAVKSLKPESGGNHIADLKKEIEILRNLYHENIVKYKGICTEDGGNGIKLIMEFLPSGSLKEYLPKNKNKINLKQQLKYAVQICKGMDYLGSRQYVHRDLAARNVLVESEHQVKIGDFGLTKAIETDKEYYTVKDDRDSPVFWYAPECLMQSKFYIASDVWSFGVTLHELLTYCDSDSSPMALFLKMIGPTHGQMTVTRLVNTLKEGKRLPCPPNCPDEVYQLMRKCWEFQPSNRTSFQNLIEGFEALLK

Consider `CCCN1Cc2[nH]c(-c3n[nH]c4cc(-c5ccc(O)cc5CC)ccc34)nc2C[C@H]1C(=O)N1CCN(CCO)CC1` [Compound 1, (S)-(2-(6-(2-ethyl-4-hydroxyphenyl)-1H-indazol-3-yl)-5-propyl-4,5,6,7-tetrahydro-3H-imidazo[4,5-c]pyridin-6-yl)(4-(2-hydroxyethyl)piperazin-1-yl)methanone], for which the “JAK1 pKi” value at JAK1 (setting [2]) is on record as 10.2. The “JAK2 pKi” value on JAK2 (setting [3]) was found to be 10.3. Besides, on JAK3 (setting [4]), the “JAK3 PKi” value came to 9.8. Further, in test [1] (setting [5]), the IC50 was 1.58 nM.
For `CCCN1Cc2[nH]c(-c3n[nH]c4cc(-c5ccc(O)cc5CC)ccc34)nc2C[C@H]1C(=O)N1C[C@@H]2C[C@H]1CN2C` [Compound 2, ((S)-2-(6-(2-ethyl-4-hydroxyphenyl)-1H-indazol-3-yl)-5-propyl-4,5,6,7-tetrahydro-3H-imidazo[4,5-c]pyridin-6-yl)((1S,4S)-5-methyl-2,5-diazabicyclo[2.2.1]heptan-2-yl)methanone] the same measures were 10.3, 10.2, 9.8 and 3.98 nM.
Take `CCc1cc(O)ccc1-c1ccc2c(-c3nc4c([nH]3)CN(C(C)C)[C@H](C(=O)N3CCCN(C)CC3)C4)n[nH]c2c1` [Compound 4, (S)-(2-(6-(2-ethyl-4-hydroxyphenyl)-1H-indazol-3-yl)-5-isopropyl-4,5,6,7-tetrahydro-3H-imidazo[4,5-c]pyridin-6-yl)(4-methyl-1,4-diazepan-1-yl)methanone]: on JAK1, the “JAK1 pKi” value is listed as 10.1. Moreover, the “JAK2 pKi” value on JAK2 was determined as 10.4. Moreover, the “JAK3 PKi” value at JAK3 is 10.1. The IC50 in test [1] was 2.51 nM.
For the compound `CCc1cc(O)ccc1-c1ccc2c(-c3nc4c([nH]3)CN(C)[C@H](C(=O)N3CCN(CCO)C[C@H]3C)C4)n[nH]c2c1` [Compound 5, ((S)-2-(6-(2-ethyl-4-hydroxyphenyl)-1H-indazol-3-yl)-5-methyl-4,5,6,7-tetrahydro-3H-imidazo[4,5-c]pyridin-6-yl)((R)-4-(2-hydroxyethyl)-2-methylpiperazin-1-yl)methanone], on JAK1, the “JAK1 pKi” value is given as 10.3. Also, the “JAK2 pKi” value on JAK2 was 10.5. Besides, the “JAK3 PKi” value on JAK3 came out at 10.1. Further, the IC50 in test [1] was 1.58 nM.
`CCc1cc(O)ccc1-c1ccc2c(-c3nc4c([nH]3)CN(C(C)C)[C@H](C(=O)N3CC[C@H](N(C)C)C3)C4)n[nH]c2c1` [Compound 6, ((S)-3-(dimethylamino)pyrrolidin-1-yl)((S)-2-(6-(2-ethyl-4-hydroxyphenyl)-1H-indazol-3-yl)-5-isopropyl-4,5,6,7-tetrahydro-3H-imidazo[4,5-c]pyridin-6-yl)methanone]: at JAK1, the “JAK1 pKi” value is 10.2. Moreover, at JAK2, the “JAK2 pKi” value was determined as 10.4. Further, at JAK3, the “JAK3 PKi” value is reported as 10.0. The IC50 in test [1] is 2 nM.
`CCCN1Cc2[nH]c(-c3n[nH]c4cc(-c5cc(F)c(O)cc5CC)ccc34)nc2C[C@H]1C(=O)N1CCN(CCO)CC1` [Compound C-1, (S)-(2-(6-(2-ethyl-5-fluoro-4-hydroxyphenyl)-1H-indazol-3-yl)-5-propyl-4,5,6,7-tetrahydro-3H-imidazo[4,5-c]pyridin-6-yl)(4-(2-hydroxyethyl)piperazin-1-yl)methanone, reference compound]: the “JAK1 pKi” value on JAK1 (setting [2]) is listed as 10.2. In addition, the “JAK2 pKi” value at JAK2 (setting [3]) is given as 10.5. Moreover, the “JAK3 PKi” value on JAK3 is 9.7. Besides, the IC50 in test [1] (setting [5]) was 2 nM.
For `CCCN1Cc2[nH]c(-c3n[nH]c4cc(-c5cc(F)c(O)cc5CC)ccc34)nc2C[C@H]1C(=O)N1C[C@@H]2C[C@H]1CN2C` [Compound C-2, ((S)-2-(6-(2-ethyl-5-fluoro-4-hydroxyphenyl)-1H-indazol-3-yl)-5-propyl-4,5,6,7-tetrahydro-3H-imidazo[4,5-c]pyridin-6-yl)((1S,4S)-5-methyl-2,5-diazabicyclo-[2.2.1]heptan-2-yl)methanone, reference compound] the same measures were 10.3, 10.8, 9.9 and 2.51 nM.
For the compound `CCc1cc(O)c(F)cc1-c1ccc2c(-c3nc4c([nH]3)CN(C)[C@H](C(=O)N3CCN(C)C[C@@H]3C)C4)n[nH]c2c1` [Compound C-3, ((S)-2,4-dimethylpiperazin-1-yl)((S)-2-(6-(2-ethyl-5-fluoro-4-hydroxyphenyl)-1H-indazol-3-yl)-5-methyl-4,5,6,7-tetrahydro-3H-imidazo[4,5-c]pyridin-6-yl)methanone, reference compound], on JAK2 (setting [3]), the “JAK2 pKi” value was 10.5. For the same compound, the “JAK3 PKi” value on JAK3 was found to be 9.7. Besides, in test [1] (setting [5]), the IC50 was 2 nM.
For the compound `CCc1cc(O)c(F)cc1-c1ccc2c(-c3nc4c([nH]3)CN(C(C)C)[C@H](C(=O)N3CCCN(C)CC3)C4)n[nH]c2c1` [Compound C-4, (S)-(2-(6-(2-ethyl-5-fluoro-4-hydroxyphenyl)-1H-indazol-3-yl)-5-isopropyl-4,5,6,7-tetrahydro-3H-imidazo[4,5-c]pyridin-6-yl)(4-methyl-1,4-diazepan-1-yl)methanone, reference compound], on JAK1 (setting [2]), the “JAK1 pKi” value is reported as 10.0. Besides, on JAK2 (setting [3]), the “JAK2 pKi” value is listed as 10.6. Further, on JAK3, the “JAK3 PKi” value was determined as 9.8. Further, the IC50 in test [1] (setting [5]) was 2 nM.
For `CCc1cc(O)c(F)cc1-c1ccc2c(-c3nc4c([nH]3)CN(C)[C@H](C(=O)N3CCN(CCO)C[C@H]3C)C4)n[nH]c2c1` [Compound C-5, ((S)-2-(6-(2-ethyl-5-fluoro-4-hydroxyphenyl)-1H-indazol-3-yl)-5-methyl-4,5,6,7-tetrahydro-3H-imidazo[4,5-c]pyridin-6-yl)((R)-4-(2-hydroxyethyl)-2-methyl-piperazin-1-yl)methanone, reference compound] the same measures were 10.1, 10.7, 9.9 and 2.51 nM.
